In article PMC12470129, “New Derivatives of 2-(Cyclohexylamino)thiazol-4(5H)-one as Strong Inhibitors of 11β-Hydroxysteroid Dehydrogenase Type 1: Synthesis, Antiproliferative and Redox-Modulating Activity” (International Journal of Molecular Sciences, 2025):

system: Caco-2 cells; experiment: MTS assay, Caco-2; assay type: cell-based, human; details: Caco-2, 72 h, strongest effects
Protocol: (§1) Human fibroblast (BJ; Cat# CRL-2522), human pancreatic cancer (PANC-1; Cat# CRL-1469), human breast cancer (MDA-MB-231; Cat# HTB-26); human brain glioma cells (U-118 MG; Cat# HTB-15), human melanoma (SK-MEL-30; Cat# ACC 151) and human colon carcinoma (Caco-2; Cat# HTB-37) were purchased from ATCC (Manassas, VA, USA) or DSMZ (Braunschweig, Germany). The cell lines were routinely maintained in the medium recommended by the manufacturer—MEM, DMEM, or RPMI (Corning, New York, NY, USA) with L-glutamine, 4.5 g/L glucose, and sodium pyruvate and supplemented with 10% FBS for BJ, PANC-1, MDA-MB-231, U-118 MG, and SK-MEL-30 or 20% FBS for Caco-2. All cell lines were cultured in a humidified CO2 incubator at 37 °C. For assays, cells were seeded at a constant density of 5 × 10^3 cells/0.32 cm^2 for Caco-2, PANC-1, MDA-MB-231, U-118 MG, and SK-MEL-30 or 2 × 10^3 cells/0.32 cm^2 for BJ.
(§2) MTS assay was performed as described elsewhere. Cell lines were seeded in a 96-well plate 24 h prior to treatment. Compounds 3a–3i were tested in a 10–500 µM concentration range and treated for 72 h. Next, the MTS solution was added for 3h and incubated at 37 °C. Absorbance was measured at 590 nm and 620 nm wavelengths using a Synergy H1 microplate reader (BioTek Instruments, San Diego, CA, USA).

`O=C1N=C(NC2CCCCC2)SC12CCC2` [Compound 3i, 6-(Cyclohexylamino)-5-thia-7-azaspiro [3.4]oct-6-en-8-one] was tested. Which “cell metabolic activity down-regulated to (MTS)” value did it give?
Its value is 30–54%.

same assay, conditions: Caco-2, MTS, 72 h

How did the “concentration at which a decrease in cell viability is observed” value (shortened to “concentration at which a decrease”) turn out when `CC1SC(NC2CCCCC2)=NC1=O` (stereo not shown) [Compound 3a, 2-(Cyclohexylamino)-5-methylthiazol-4(5H)-one] was run?
Its value is “above 200 µM”.

`CC(C)C1SC(NC2CCCCC2)=NC1=O` (stereo not shown) [Compound 3d, 2-(Cyclohexylamino)-5-isopropylthiazol-4(5H)-one] was tested. Which “concentration at which a decrease” value did it give?
Its value is “above 200 µM”.

`O=C1N=C(NC2CCCCC2)SC12CCC2` [Compound 3i, 6-(Cyclohexylamino)-5-thia-7-azaspiro [3.4]oct-6-en-8-one] was tested. Which “concentration at which a decrease” value did it give?
Its value is “above 200 µM”.

system: SK-MEL-30 cells; experiment: MTS assay, SK-MEL-30; assay type: cell-based, human; details: SK-MEL-30, 72 h, strongest effects
Protocol: as §1, §2

For `O=C1N=C(NC2CCCCC2)SC1c1ccccc1` (stereo not shown) [Compound 3f, 2-(Cyclohexylamino)-5-phenylthiazol-4(5H)-one], which “cell metabolic activity down-regulated to (MTS)” value is on record?
The value was 30–54%.

Which “cell metabolic activity down-regulated to (MTS)” value does the source give for `CCCC1SC(NC2CCCCC2)=NC1=O` (stereo not shown) [Compound 3c, 2-(Cyclohexylamino)-5-propylthiazol-4(5H)-one] here?
The value was 30–54%.

For `CC(C)C1SC(NC2CCCCC2)=NC1=O` (stereo not shown) [Compound 3d, 2-(Cyclohexylamino)-5-isopropylthiazol-4(5H)-one], which “cell metabolic activity down-regulated to (MTS)” value is on record?
The value was 30–54%.

system: U-118 MG cells; experiment: MTS assay, U-118 MG; assay type: cell-based, human; details: 72 h
Protocol: as §1, §2

Which “highest increase in proliferation (metabolic activity, MTS)” value (shortened to “highest increase in proliferation”) does the source give for `CC1SC(NC2CCCCC2)=NC1=O` (stereo not shown) [Compound 3a, 2-(Cyclohexylamino)-5-methylthiazol-4(5H)-one] here?
The value was 115–134%.

With `O=C1N=C(NC2CCCCC2)SC12CCC2` [Compound 3i, 6-(Cyclohexylamino)-5-thia-7-azaspiro [3.4]oct-6-en-8-one] as the compound, how does the “highest increase in proliferation” value read?
The value was 115–134%.

system: Caco-2 cells; experiment: Intracellular redox homeostasis (ROS, RNS, GSH), Caco-2; assay type: cell-based, human; details: Caco-2, 500 µM, 72 h
Protocol: as §1
(§3) Based on the MTS assay, a toxic concentration of 500 µM of each compound was selected for redox analysis for all cell lines. Cell lines were seeded at the standard density in 96-well black plates. […] The signal measurement was taken with a Synergy H1 microplate reader (BioTek Instruments, CA, USA).

With `CC1SC(NC2CCCCC2)=NC1=O` (stereo not shown) [Compound 3a, 2-(Cyclohexylamino)-5-methylthiazol-4(5H)-one] as the compound, how does the “ROS level” value read?
The value was “increase in ROS production”.

target: T1, 11β-HSD2 (Homo sapiens, UniProt P80365); experiment: 11β-HSD2 inhibition assay (cortisol to cortisone, human kidney microsomes, cortisol ELISA); assay type: biochemical; details: at a concentration of 10 µM
T1 construct: human kidney microsomes were used as a source of the 11β‐HSD2 enzyme; tissue XenoTech Lot No. 1710160; host or cells: human kidney microsomes, mixed gender
T1 sequence (P80365 1-405): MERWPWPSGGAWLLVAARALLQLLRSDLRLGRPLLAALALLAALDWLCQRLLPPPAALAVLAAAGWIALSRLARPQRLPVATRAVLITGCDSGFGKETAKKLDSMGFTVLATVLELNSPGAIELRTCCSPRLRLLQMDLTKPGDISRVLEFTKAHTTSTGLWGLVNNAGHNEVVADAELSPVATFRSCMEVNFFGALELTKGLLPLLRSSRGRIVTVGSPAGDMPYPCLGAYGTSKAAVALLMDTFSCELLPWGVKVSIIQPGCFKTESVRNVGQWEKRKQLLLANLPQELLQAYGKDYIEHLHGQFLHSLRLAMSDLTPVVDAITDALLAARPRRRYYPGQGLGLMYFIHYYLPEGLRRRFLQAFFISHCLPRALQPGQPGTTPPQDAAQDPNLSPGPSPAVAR
Protocol: 11β-Hydroxysteroid dehydrogenase type 1 and type 2 inhibition assays were performed as previously described. For more details, see the Supplementary Materials. […]
(§4) Solvents and reagents: 18‐beta‐glycyrrhetinic acid – (Acros Organic, Geel, Belgium), cortisone, NAD cofactor, phosphate buffer powder (Sigma‐Aldrich, Poznań, Poland), Human Kidney Microsomes, […]
(§5) ‐ (DiaMetra, Spello, Italy), Enzyme‐Linked Immunosorbent Assay (ELISA) Kit for 11‐Beta‐ Hydroxysteroid Dehydrogenase Type 2 Lot No. L191113457 ‐ (Cloud‐Clone Corp., Wuhan, China), PBS Lot No. H161008 (Pan Biotech, Aidenbach, Germany). […]
(§6) kidney microsomes were used as a source of the 11β‐HSD2 enzyme. Standard 96‐well microplates were filled with a reagent mixture: cortisol/NAD+ (20 μL, to obtain a final concentration of 200 nM / 2 μM), […]
(§7) The resulting solution (final volume of 100 μL) was incubated for 2.5 h at 37°C. […]
(§8) levels were measured using a commercially available ELISA kit.
(§9) 1.3. Determination of IC50 […]
(§10) conditions described in the sections above. Analogous assays without added inhibitors were performed as controls. The IC₅₀ value, defined as the concentration of inhibitor causing a 50% reduction in cortisol or cortisone, was read directly from the graph.

With `CC1SC(NC2CCCCC2)=NC1=O` (stereo not shown) [Compound 3a, 2-(Cyclohexylamino)-5-methylthiazol-4(5H)-one] as the compound, how does the inhibition at 10 µM read?
Its inhibition at 10 µM is 42 ± 2.5%.

For `O=C1N=C(NC2CCCCC2)SC1c1ccccc1` (stereo not shown) [Compound 3f, 2-(Cyclohexylamino)-5-phenylthiazol-4(5H)-one], which inhibition at 10 µM is on record?
Its inhibition at 10 µM is 40 ± 8.34%.

How did the inhibition at 10 µM turn out when `CCCC1SC(NC2CCCCC2)=NC1=O` (stereo not shown) [Compound 3c, 2-(Cyclohexylamino)-5-propylthiazol-4(5H)-one] was run?
The inhibition at 10 µM was 47.1 ± 0.82%.

`CC(C)C1SC(NC2CCCCC2)=NC1=O` (stereo not shown) [Compound 3d, 2-(Cyclohexylamino)-5-isopropylthiazol-4(5H)-one] was tested. Which inhibition at 10 µM did it give?
Its inhibition at 10 µM is 47 ± 1.67%.

Which inhibition at 10 µM does the source give for `O=C1N=C(NC2CCCCC2)SC12CCC2` [Compound 3i, 6-(Cyclohexylamino)-5-thia-7-azaspiro [3.4]oct-6-en-8-one] here?
The inhibition at 10 µM was 51 ± 0.73%.

system: MDA-MB-231 cells; experiment: MTS assay, MDA-MB-231; assay type: cell-based, human; details: MDA-MB-231, 72 h, strongest effects
Protocol: as §1, §2

`CCCC1SC(NC2CCCCC2)=NC1=O` (stereo not shown) [Compound 3c, 2-(Cyclohexylamino)-5-propylthiazol-4(5H)-one] was tested. Which “cell metabolic activity down-regulated to (MTS)” value did it give?
The value was 30–54%.

`O=C1N=C(NC2CCCCC2)SC12CCC2` [Compound 3i, 6-(Cyclohexylamino)-5-thia-7-azaspiro [3.4]oct-6-en-8-one] was tested. Which “cell metabolic activity down-regulated to (MTS)” value did it give?
The value was 30–54%.

target: T2, 11β-HSD1 (Homo sapiens, UniProt P28845); experiment: 11β-HSD1 inhibition assay (cortisone to cortisol, human liver microsomes, cortisol ELISA); assay type: biochemical; details: at a concentration of 10 µM; human liver microsomes
T2 construct: human liver microsomes were used as a source of the 11β‐HSD1 enzyme; tissue XenoTech Lot No.1410013; host or cells: pooled human liver microsomes, mixed gender
T2 sequence (P28845 whole entry): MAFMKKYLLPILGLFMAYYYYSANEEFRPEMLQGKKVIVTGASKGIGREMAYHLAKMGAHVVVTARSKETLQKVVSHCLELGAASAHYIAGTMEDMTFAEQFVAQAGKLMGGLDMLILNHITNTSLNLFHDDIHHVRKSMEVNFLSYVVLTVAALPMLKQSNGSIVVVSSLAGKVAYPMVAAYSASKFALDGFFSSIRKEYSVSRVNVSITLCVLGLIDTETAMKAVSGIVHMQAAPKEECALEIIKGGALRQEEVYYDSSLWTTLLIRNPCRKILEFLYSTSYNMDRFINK
Protocol: 11β-Hydroxysteroid dehydrogenase type 1 and type 2 inhibition assays were performed as previously described. For more details, see the Supplementary Materials.
Detailed protocols of enzyme inhibition assays
1. Inhibition of 11β‐HSD Assays […]
tetrasodium salt, phosphate buffer powder, (Sigma‐Aldrich, Poznań, Poland), Pooled human liver microsomes, mixed gender, 1 mL, 20 mg/mL Lot No.1410013 ‐ XenoTech, Cortisol Elisa Ref DkO001 Lot […]
No. L211008799 – (Cloud‐Clone Corp., Wuhan, China), PBS Lot No. H161008 (Pan Biotech, Aidenbach, […]
liver microsomes were used as a source of the 11β‐HSD1 enzyme. Standard 96‐well microplates were filled with a reagent mixture: cortisone/NADPH (20 μ l, to obtain a final concentration of 200 nM / 2 μ M), […]
water. The resulting solution (final volume 100 μ l) was incubated for 2.5 h at 37°C. To stop the reaction, 10 μl of a 100 μM solution of 18β‐glycyrrhetinic acid in PBS was added. Cortisol levels resulting from the reaction were measured using a commercially available ELISA kit.
as §4, §5, §6, §7, §8, §9, §10

Which inhibition at 10 µM does the source give for `CC1SC(NC2CCCCC2)=NC1=O` (stereo not shown) [Compound 3a, 2-(Cyclohexylamino)-5-methylthiazol-4(5H)-one] here?
The inhibition at 10 µM was 27.5 ± 2.12%.

For `O=C1N=C(NC2CCCCC2)SC1c1ccccc1` (stereo not shown) [Compound 3f, 2-(Cyclohexylamino)-5-phenylthiazol-4(5H)-one], which inhibition at 10 µM is on record?
The inhibition at 10 µM was 83.8 ± 4.53%.

How did the inhibition at 10 µM turn out when `CCCC1SC(NC2CCCCC2)=NC1=O` (stereo not shown) [Compound 3c, 2-(Cyclohexylamino)-5-propylthiazol-4(5H)-one] was run?
Its inhibition at 10 µM is 85.7 ± 4.43%.

With `CC(C)C1SC(NC2CCCCC2)=NC1=O` (stereo not shown) [Compound 3d, 2-(Cyclohexylamino)-5-isopropylthiazol-4(5H)-one] as the compound, how does the inhibition at 10 µM read?
Its inhibition at 10 µM is 90.4 ± 2.74%.

How did the inhibition at 10 µM turn out when `O=C1N=C(NC2CCCCC2)SC12CCC2` [Compound 3i, 6-(Cyclohexylamino)-5-thia-7-azaspiro [3.4]oct-6-en-8-one] was run?
Its inhibition at 10 µM is 87.3 ± 0.99%.

same assay, conditions: compared on % inhibition at 10 µM; versus carbenoxolone

With `CC1SC(NC2CCCCC2)=NC1=O` (stereo not shown) [Compound 3a, 2-(Cyclohexylamino)-5-methylthiazol-4(5H)-one] as the compound, how does the “selectivity 11β-HSD1 versus 11β-HSD2” value read?
Its value is “greater inhibitory activity towards 11β-HSD2 than 11β-HSD1”.

With `CC(C)C1SC(NC2CCCCC2)=NC1=O` (stereo not shown) [Compound 3d, 2-(Cyclohexylamino)-5-isopropylthiazol-4(5H)-one] as the compound, how does the “selectivity 11β-HSD1 versus 11β-HSD2” value read?
The value was “greater selectivity than the standard compound”.

same assay, conditions: human liver microsomes; unit printed in text (b17-b19)

Which IC50 does the source give for `CC1SC(NC2CCCCC2)=NC1=O` (stereo not shown) [Compound 3a, 2-(Cyclohexylamino)-5-methylthiazol-4(5H)-one] here?
The IC50 was > 10 µM.

For `O=C1N=C(NC2CCCCC2)SC1c1ccccc1` (stereo not shown) [Compound 3f, 2-(Cyclohexylamino)-5-phenylthiazol-4(5H)-one], which IC50 is on record?
Its IC50 is 0.17 ± 0.035 µM.

Which IC50 does the source give for `CCCC1SC(NC2CCCCC2)=NC1=O` (stereo not shown) [Compound 3c, 2-(Cyclohexylamino)-5-propylthiazol-4(5H)-one] here?
The IC50 was 0.4 ± 0.005 µM.

How did the IC50 turn out when `CC(C)C1SC(NC2CCCCC2)=NC1=O` (stereo not shown) [Compound 3d, 2-(Cyclohexylamino)-5-isopropylthiazol-4(5H)-one] was run?
Its IC50 is 0.08 ± 0.015 µM.

`O=C1N=C(NC2CCCCC2)SC12CCC2` [Compound 3i, 6-(Cyclohexylamino)-5-thia-7-azaspiro [3.4]oct-6-en-8-one] was tested. Which IC50 did it give?
Its IC50 is 0.09 ± 0.016 µM.

system: BJ cells; experiment: Intracellular redox homeostasis (ROS, RNS, GSH), BJ; assay type: cell-based, human; details: 500 µM, 72 h
Protocol: as §1, §3

For `O=C1N=C(NC2CCCCC2)SC12CCC2` [Compound 3i, 6-(Cyclohexylamino)-5-thia-7-azaspiro [3.4]oct-6-en-8-one], which “ROS level” value is on record?
Its value is “increase in ROS”.

system: PANC-1 cells; experiment: MTS assay, PANC-1; assay type: cell-based, human; details: PANC-1, 72 h
Protocol: as §1, §2

`O=C1N=C(NC2CCCCC2)SC1c1ccccc1` (stereo not shown) [Compound 3f, 2-(Cyclohexylamino)-5-phenylthiazol-4(5H)-one] was tested. Which “highest increase in proliferation” value did it give?
The value was 115–134%.
